Reference: patent publication US20220175836A1, “PRIMING WITH TARGETED ACTIVATED T CELLS CAN ENHANCE CHEMO RESPONSIVENESS OF CANCER CELLS” (University of Virginia Patent Foundation, priority 2019, published 2022)
Read-outs that look alike come from different tables or passages of the source.

Key:
MiaPaCa-2 = assay: IC50 concentration by MTT colorimetric assay; type: cell-based, human
Method: (§1) MiaPaCa-2 and PANC-1 cells were trypsinized, washed, and incubated overnight in a humidified incubator. Each condition was performed in quadruplicate with 3×10^3 cells/well on a 96-well flat bottom plate. […] After drug treatment, 15 μL of the MTT dye solution was added to each well and incubated for 4 hours in a humidified incubator. The reaction was stopped by adding 100 μL of solubilization solution and the plate was incubated for an additional hour at room temperature. The wells were mixed and the absorbance was measured at 570 nm using a Synergy HTX Plate Reader. The % inhibition was calculated using the following equation: […]

L3.6 = assay: IC50 concentration in L3.6 cells; type: cell-based
Pancreatic cancer (PC) = conditions: advanced or recurrent disease patients; cited from earlier work
BxPC-3 cells = assay: IC50 concentration in BxPC-3 cells; type: cell-based
CFPAC cells = assay: IC50 concentration in CFPAC cells; type: cell-based
PANC-1 = assay: IC50 concentration by MTT colorimetric assay; type: cell-based, human
Method: as §1

For `Nc1ccn([C@@H]2O[C@H](CO)[C@@H](O)C2(F)F)c(=O)n1` [Gem, gemcitabine], the IC50 (MiaPaCa-2; Homo sapiens, MIA PaCa-2, MiaPaCa-2, 72 hours treatment, MTT) is given as 15.6 µM, the IC50 (L3.6) is given as 12 µM and the median survival (Pancreatic cancer (PC)) is given as 6.7 months.
For `O=c1[nH]cc(F)c(=O)[nH]1` [5FU, 5 fluorouracil], the IC50 (BxPC-3 cells; Homo sapiens) was 14.6 µM, the IC50 (CFPAC cells; no unit printed at b33, read-out: IC50 dose) was 5 µM and the IC50 (CFPAC cells; read-out: IC50 concentration) was 5 µM.
Work on `N.N.[Cl][Pt][Cl]` [CIS, cisplatin] yielded an IC50 (MiaPaCa-2; MiaPaCa-2, 72 hours treatment, MTT) of 18.6 µM, an IC50 (MiaPaCa-2; MiaPaCa-2, no unit printed at b274) of 18.6 µM and an IC50 (PANC-1; PANC-1, 72 hours treatment, MTT) of 14 µM. The IC50 (PANC-1; PANC-1, no unit printed at b274) was 14 µM, the IC50 (BxPC-3 cells) was 6.9 µM and the IC50 (CFPAC cells; read-out: IC50 concentration) was 10 µM. It also gave an IC50 (L3.6) of 16 µM.
